Values joined by “and” are separate entries in the source; they are usually repeats but may differ in a detail not shown here. Equal entries are not always repeated. Square brackets hold non-standard residues; d marks the D form. Peptide text beside a SMILES is read from it.
Key:
L929 cells = assay: in vitro; details: for Cell viability (Fig. S2e): L929 (48h)
Method: (§1) Cell viability was measured by cell counting kit-8 (TargetMol) according to the manufacturer’s instructions. […]
(§2) (e-g) THP1 cells (e), L929 cells (f) and RAW264.7 cells (g) were exposed to the indicated doses of XQ2 for 48h, the cell viability was measured by CCK8 assay. Data are representative of three independent experiments in (a-g). (Data are presented as mean ± SD, n = 3 independent samples in (a-g), **p < 0.01, ***p < 0.001, ****p < 0.0001 using one-way ANOVA with Dunnett’s post hoc test).
(§3) Source data are provided as a Source Data file.

RAW264.7 cells = assay: in vitro; details: for Cell viability (Fig. S2e): RAW264.7 (48h)
Method: as §1, §2, §3

in vitro = details: mouse, Cell viability (Fig. S2e)
Method: as §1, §2, §3

[1] = tested on: THP1-Lucia ISG cells infected by HSV-1; assay: Luciferase reporter assay, HSV-1 infection; format: cell-based, human; details: for luciferase activity, Fig. 5c: XQ2 10 μM
Method: THP1-Lucia ISG cells (Invivogen) were seeded into a 96-well plate and incubated with RU.521 (Invivogen) or XQ2 for the indicated time, and then transfected with dsDNA by lipofectamine 2000 (Invitrogen) or infected by HSV-1 with the indicated titer for 24 h. The supernatant was collected and 50 μL QUANTI-Luc Luciferase reagent (Invivogen) was added to 20 μL supernatants per well, and luciferase luminescence was detected by a microplate reader (BioTek Synergy H1) immediately.

THP1 cells = assay: Immunoblotting of phosphorylated IRF3/TBK1 and nuclear IRF3; format: cell-based, human
Method: Total cell lysates were prepared in RIPA lysis buffer (Beyotime Biotechnology) supplemented with 1 mM PMSF and 1× protease inhibitor cocktail (Yeasen), and nuclear protein was extracted by nuclear protein extraction kit (Solarbio) in accordance with the manufacturer’s instructions. The samples were separated by SDS-PAGE and transferred to the PVDF membrane (Millipore). The membranes were incubated with the indicated primary antibodies at 4 °C overnight and then incubated with an HRP-conjugated anti-rabbit IgG antibody (Cell Signaling, Cat# 7074, 1:5000) or anti-mouse IgG antibody (Cell Signaling, Cat# 7076, 1:5000) at room temperature for 1 h. The signal was visualized by using the NcmECL Ultra kit (New Cell & Molecular Biotech) and then was exposed by using MiniChemi (SageCreation).

[2] = target: T1, hcGAS-FL (D191R) mutant + FAM-ISD (Homo sapiens, UniProt Q8N884, D191R); assay: Fluorescence polarization competition of FAM-ISD binding
T1 construct: The gene encoding full-length human cGAS (hcGAS-FL); 6xHis-SUMO (N, cleaved yes); made in house; host or cells: Escherichia coli BL21 (DE3)
T1 sequence (Q8N884 whole entry D191R): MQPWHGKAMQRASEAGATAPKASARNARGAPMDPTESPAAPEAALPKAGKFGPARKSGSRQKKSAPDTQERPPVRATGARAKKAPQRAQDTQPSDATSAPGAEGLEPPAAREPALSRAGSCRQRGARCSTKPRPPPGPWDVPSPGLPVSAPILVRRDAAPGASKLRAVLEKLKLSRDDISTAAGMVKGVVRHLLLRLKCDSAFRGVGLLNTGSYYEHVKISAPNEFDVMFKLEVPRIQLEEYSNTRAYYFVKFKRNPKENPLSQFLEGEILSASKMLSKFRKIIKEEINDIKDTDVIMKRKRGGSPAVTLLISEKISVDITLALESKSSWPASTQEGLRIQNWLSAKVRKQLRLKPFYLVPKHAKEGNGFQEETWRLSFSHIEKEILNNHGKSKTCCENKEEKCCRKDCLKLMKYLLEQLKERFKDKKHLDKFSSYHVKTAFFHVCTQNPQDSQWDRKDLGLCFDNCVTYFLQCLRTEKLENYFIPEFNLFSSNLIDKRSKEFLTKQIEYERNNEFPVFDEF
Description: Samples were dispensed in 30 μ L final volumes per well into a 384-well flat-bottom black plate (Corning 3575). The polarization was detected by a microplate reader (BioTek Synergy H1) with a fluorescence polarization filter cube (excitation wavelength: 485 ± 10 nm; emission wavelength: 528 ± 10 nm) immediately.

[3] = Pharmacokinetics after intravenous administration; details: C57BL/6, mouse, whole blood, 10 mg/kg
Method: Whole blood samples were collected in EDTA-K2 surface-coated tubes at 0.083, 0.25, 0.5, 1, 2, 5, 7, 24 h post administration. The results were analyzed by LC-MS.

For `CC(C)C[C@@H]1NC(=O)[C@H](CCCNC(=N)N)NC(=O)[C@H](C(C)C)NC(=O)[C@@H]2CCCN2C(=O)[C@@H](Cc2ccccc2)NC(=O)[C@H](CC(C)C)NC(=O)[C@H](CCCNC(=N)N)NC(=O)[C@H](C(C)C)NC(=O)[C@H](C)NC(=O)[C@@H](Cc2ccccc2)NC1=O` [XQ2, Cyclo (LfAVRLfPVR)] (cyclo(L[dF]AVRL[dF]PVR)), which “Cell viability (Fig. S2e)” value (L929 cells; XQ2 0.23 μM) is on record?
The value was 110.662 and 106.618.

What about the “Cell viability (Fig. S2e)” value (L929 cells; XQ2 0.47 μM) of the same compound?
The value was 92.2794 and 86.3971.

And the “Cell viability (Fig. S2e)” value (L929 cells; XQ2 0.94 μM)?
The value was 87.1324 and 89.2157.

What about the “Cell viability (Fig. S2e)” value (L929 cells; XQ2 1.88 μM) of the same compound?
The value was 84.4363 and 91.299.

And the “Cell viability (Fig. S2e)” value (L929 cells; XQ2 3.75 μM)?
Its value is 94.6078 and 92.0343.

And the “Cell viability (Fig. S2e)” value (L929 cells; XQ2 7.5 μM)?
Its value is 92.2794 and 92.1569.

And the “Cell viability (Fig. S2e)” value (L929 cells; XQ2 15 μM)?
Its value is 85.049 and 94.6078.

What about the “cytotoxicity” value (L929 cells; L929, 48h) of the same compound?
The value was “no cytotoxicity”.

And the “Cell viability (Fig. S2e)” value (RAW264.7 cells; XQ2 0.16 μM)?
The value was 99.8864 and 99.6917.

What about the “Cell viability (Fig. S2e)” value (RAW264.7 cells; XQ2 0.31 μM) of the same compound?
Its value is 112.786 and 105.825.

What about the “Cell viability (Fig. S2e)” value (RAW264.7 cells; XQ2 0.63 μM) of the same compound?
The value was 111.812 and 107.48.

And the “Cell viability (Fig. S2e)” value (RAW264.7 cells; XQ2 1.25 μM)?
The value was 113.808 and 104.608.

And the “Cell viability (Fig. S2e)” value (RAW264.7 cells; XQ2 2.5 μM)?
Its value is 105.825 and 105.241.

And the “Cell viability (Fig. S2e)” value (RAW264.7 cells; XQ2 5 μM)?
Its value is 107.821 and 104.219.

And the “Cell viability (Fig. S2e)” value (RAW264.7 cells; XQ2 10 μM)?
Its value is 108.843 and 106.117.

What about the “cytotoxicity” value (RAW264.7 cells; RAW264.7, 48h) of the same compound?
Its value is “no cytotoxicity”.

And the viability at 48 h, 0.23 µM (in vitro; L929 cells, L929 (48h), XQ2 0.23 μM)?
Its viability at 48 h, 0.23 µM is 108%.

What about the viability at 48 h, 0.47 µM (in vitro; L929 cells, L929 (48h), XQ2 0.47 μM) of the same compound?
Its viability at 48 h, 0.47 µM is 90.1%.

What about the viability at 48 h, 0.94 µM (in vitro; L929 cells, L929 (48h), XQ2 0.94 μM) of the same compound?
The viability at 48 h, 0.94 µM was 83.6%.

And the viability at 48 h, 1.88 µM (in vitro; L929 cells, L929 (48h), XQ2 1.88 μM)?
Its viability at 48 h, 1.88 µM is 85.4%.

And the viability at 48 h, 3.75 µM (in vitro; L929 cells, L929 (48h), XQ2 3.75 μM)?
Its viability at 48 h, 3.75 µM is 90%.

And the viability at 48 h, 7.5 µM (in vitro; L929 cells, L929 (48h), XQ2 7.5 μM)?
The viability at 48 h, 7.5 µM was 93.1%.

And the viability at 48 h, 15 µM (in vitro; L929 cells, L929 (48h), XQ2 15 μM)?
Its viability at 48 h, 15 µM is 86.3%.

What about the viability at 48 h, 0.16 µM (in vitro; RAW264.7 cells, RAW264.7 (48h), XQ2 0.16 μM) of the same compound?
Its viability at 48 h, 0.16 µM is 100%.

And the viability at 48 h, 0.31 µM (in vitro; RAW264.7 cells, RAW264.7 (48h), XQ2 0.31 μM)?
The viability at 48 h, 0.31 µM was 102%.

And the viability at 48 h, 0.63 µM (in vitro; RAW264.7 cells, RAW264.7 (48h), XQ2 0.63 μM)?
Its viability at 48 h, 0.63 µM is 104%.

What about the viability at 48 h, 1.25 µM (in vitro; RAW264.7 cells, RAW264.7 (48h), XQ2 1.25 μM) of the same compound?
Its viability at 48 h, 1.25 µM is 104%.

What about the viability at 48 h, 2.5 µM (in vitro; RAW264.7 cells, RAW264.7 (48h), XQ2 2.5 μM) of the same compound?
Its viability at 48 h, 2.5 µM is 104%.

What about the viability at 48 h, 5 µM (in vitro; RAW264.7 cells, RAW264.7 (48h), XQ2 5 μM) of the same compound?
The viability at 48 h, 5 µM was 102%.

What about the viability at 48 h, 10 µM (in vitro; RAW264.7 cells, RAW264.7 (48h), XQ2 10 μM) of the same compound?
Its viability at 48 h, 10 µM is 103%.

And the “HSV-1-induced luciferase reporter signal” value ([1]; 10 μM)?
The value was “further confirmed in the reporter cell line THP1 Lucia ISG”.

And the “luciferase activity, Fig. 5c” value ([1]; Ctl)?
Its value is 1.148 and 1.262 and 1.5089.

What about the “luciferase activity, Fig. 5c” value ([1]; HSV-1 1×10^4 pfu 24 h) of the same compound?
Its value is 3.199 and 3.457 and 4.259.

And the “luciferase activity, Fig. 5c” value ([1]; HSV-1 2×10^4 pfu 24 h)?
Its value is 5.808 and 6.219 and 6.721.

What about the “luciferase activity, Fig. 5c” value ([1]; HSV-1 5×10^4 pfu 24 h) of the same compound?
The value was 11.1309 and 12.5837 and 12.8036.

And the “nuclear translocation of IRF-3, fractionation immunoblot” value (THP1 cells; ISD or HSV-1, 10 μM)?
Its value is “substantially suppressed the nuclear translocation of IRF-3 induced by ISD and HSV-1”.

What about the “phosphorylation of TBK-1 and IRF-3” value (THP1 cells; ISD/dsDNA 6 h) of the same compound?
Its value is “markedly decreased phosphorylation of TBK-1 and IRF-3 induced by ISD”.

And the “inhibition of dsDNA binding to hcGAS-FL (D191R), FP” value [2]?
Its value is “markedly reduced”.

Which AUC(0-inf) [3] does the source give for `CC(C)C[C@@H]1NC(=O)[C@H](CCCNC(=N)N)NC(=O)[C@H](C(C)C)NC(=O)[C@@H]2CCCN2C(=O)[C@@H](Cc2ccccc2)NC(=O)[C@H](CC(C)C)NC(=O)[C@H](CCCNC(=N)N)NC(=O)[C@H]([C@@H](C)O)NC(=O)[C@H](C)NC(=O)[C@@H](Cc2ccccc2)NC1=O` [XQ2B] (cyclo([dF]ATRL[dF]PVRL)) here?
Its AUC(0-inf) is 157 µg·h/mL.

And the AUC(0-t) [3]?
The AUC(0-t) was 135 µg·h/mL.

And the Cmax [3]?
Its Cmax is 105 µg/mL.

What about the MRT last [3] of the same compound?
The MRT last was 72 min.

And the Tmax [3]?
Its Tmax is 4.98 min.

And the Vd [3]?
The Vd was 0.095 L/kg.

And the clearance [3]?
Its clearance is 1.18 mL/min/kg.
